Results taken from PMC12516686, “Design of 2‑Aminobenzothiazole Derivatives Targeting Trypanosomatid PTR1 by a Multidisciplinary Fragment Hybridization Approach” (Journal of Medicinal Chemistry, 2025).
Read-outs that look alike come from different tables or passages of the source.

Tests used:
[1] = test system: Trypanosoma brucei brucei L427 wild-type (WT) bloodstream forms; assay: Activity against T. brucei (resazurin-based assay); type: cell-based; conditions: Trypanosoma brucei; for inhibition at 10 µM: read-out: T. brucei % cell growth inhibition
Method: The parasites were grown in 5 mL T25 ventilated flasks containing complete HMI-9 medium. The medium was supplemented with 10% heat-inactivated FBS and 100 IU/mL penicillin/streptomycin. To maintain the cultures, subpassages were performed every 2 days at a concentration of 1 × 10^4 cells/mL.
The efficacy of the compounds against Trypanosoma brucei brucei L427 wild-type (WT) bloodstream forms was assessed using a resazurin-based assay as described elsewhere. T. b. brucei L427 bloodstream forms were prepared at a cell density of 5 × 10^3 cells/mL in supplemented complete medium. Serial dilutions of the test compounds were prepared in a final volume of 100 μL, and 100 μL of the parasite suspension was added to each well containing the compound dilutions, resulting in a total volume of 200 μL per well. A dose–response curve for pentamidine was included as a quality control in each assay, and each condition was tested in duplicate. The plates were incubated for 72 h under the specified conditions for the parasite. After the incubation period, 20 μL of a 0.5 mM resazurin solution was added to each well, and the plates were incubated for an additional 4 h under the same conditions. Fluorescence was measured at an excitation wavelength of 544 nm and an emission wavelength of 590 nm using a Synergy 2 Multi-Mode Reader (Biotek, Winooski, VT, USA). The results were expressed as the percentage of parasite growth inhibition compared to the control (untreated parasites) and represented the average of at least three independent experiments.

[2] = test system: L. infantum intracellular amastigotes; assay: Activity against L. infantum intracellular amastigotes (luciferase); type: cell-based, Leishmania infantum; conditions: for inhibition at 10 µM: Leishmania infantum, read-out: L. infantum % cell growth inhibition
Method: Luciferase-expressing L. infantum (MHOM/MA/67/ITMAP-263) axenic amastigotes were cultured in MAA/20 medium at 37 °C with 5% CO2. The parasites were maintained in 5 mL T25 ventilated flasks and subcultured every 7 days at a concentration of 1 × 10^6 cells/mL.
The activity against Leishmania infantum intracellular amastigotes was evaluated following the method described with modifications. THP-1 cells were differentiated into macrophages with PMA as described above. The cells were then infected with L. infantum axenic amastigotes expressing episomal luciferase at a macrophage-to-amastigote ratio of 1:10 for 4 h at 37 °C and 5% CO2. Noninternalized parasites were washed away, and compounds were added at various concentrations to a final volume of 100 μL. A dose–response curve for miltefosine was included in all assays as a quality control. Each condition was tested in quadruplicate. After 72 h of incubation, the medium was replaced with 100 μL of PBS, and 25 μL of Glo-lysis buffer from the Steady-Glo Luciferase Assay System (Promega, Madison, WI, USA) was added. The plates were agitated at 100 rpm for 10 min at room temperature. Subsequently, 30 μL of the Steady-Glo reagent (Promega, Madison, WI, USA) was added and incubated for 15 min in the dark under the same conditions. A total of 140 μL from each well was transferred to white-bottom 96-well plates, and luminescence intensity was measured using a Synergy 2 multimode reader (Biotek, Winooski, VT, USA). The antileishmanial effect was evaluated by comparison of the nontreated infected cells. The IC50 was determined (for miltefosine) through nonlinear regression analysis using GraphPad Prism version 8.1.1 for Windows (GraphPad Software, San Diego, CA, USA). Results represent the average of at least three independent experiments.

[3] = Cytotoxicity assay (MTT) on THP-1-derived macrophages; type: cell-based, Human; conditions: human, THP-1-derived macrophages
Method: Human leukemia cell line THP-1 (ATCC TIB202) cells were cultured in RPMI-1640 medium supplemented with 10% heat-inactivated fetal bovine serum (FBS), 2 mM L-glutamine, 100 IU/mL penicillin/streptomycin, and 20 mM HEPES. The cell line was maintained in a humidified incubator at 37 °C with 5% CO2. Subcultures were performed every 3 days in 20 mL of media at a concentration of 2 × 10^5 cells/mL in a T75 flask. All cell culture reagents were purchased from Lonza Bioscience (Morrisville, NC).
The cytotoxicity of the compounds on THP-1-derived macrophages was assessed using the colorimetric MTT assay (3-(4,5-dimethylthiazol-2-yl)-2,5-diphenyl tetrazolium bromide) as described elsewhere. THP-1 cells were suspended in RPMI complete medium at a density of 1 × 10^6 cells/mL, and 100 μL/well was seeded in a 96-well plate. The cells were differentiated into macrophages by adding 40 ng/mL of phorbol-myristate 13-acetate (PMA, Sigma, Saint Louis, MI, USA) for 24 h, followed by replacement with fresh medium for another 24 h. Subsequently, the cells were incubated with 100 μL of compounds, ranging from 100 to 12.5 μM, diluted in RPMI complete medium. Each condition was tested in triplicate. After 72 h of incubation at 37 °C with 5% CO2, the medium was removed, and 200 μL of 0.5 mg/mL MTT solution diluted in RPMI was added. The plates were incubated for an additional 4 h, after which 160 μL of the media was removed and replaced with 160 μL of 2-propanol. Absorbance was read at 570 nm using a Synergy 2 Multi-Mode Reader (Biotek, Winooski, VT, USA). Cytotoxicity was evaluated by presenting the CC50 (the concentration of the drug that reduces cell viability by 50%) interval or by determining the CC50 value through nonlinear regression analysis using GraphPad Prism version 8.1.1 for Windows (GraphPad Software, San Diego, CA, USA). Results represent the average of at least three independent experiments.

CYP3A4 = target: T1, CYP3A4 (Homo sapiens, UniProt P08684); assay: Cytochrome P450 assay (P450-Glo), isoform 3A4; type: in vitro ADME
T1 construct: purchased Promega; host or cells: baculovirus-infected insect cells
Excerpt: 3A4. The Promega P450-Glo assay platform was used with microsomal preparations of
cytochrome P450s from baculovirus-infected insect cells. […]

[4] = Cytotoxicity against A549 cells (CellTiter-Glo); type: cell-based; conditions: human, A549 cells; for GI50: read-out: A549 cytotoxicity GI50 (50% growth inhibition)
Method: (§1) Cytotoxicity against A549 cells. The CellTiter-Glo assay from Promega was used. It detects the cellular ATP content, which is directly proportional to the number of viable cells. The A549 cells were obtained from DSMZ (German Collection of Microorganisms and Cell Cultures, Braunschweig, Germany) and cultured in Dulbecco’s modified Eagle medium (DMEM) with FCS (10% v/v), streptomycin (100 µg/mL), and penicillin G (100 U/mL)23. […]

A549 cells = assay: Cytotoxicity against A549 cells (CellTiter-Glo); type: cell-based
Method: as §1

[5] = read-out: 95% confidence interval for EC50 (T. brucei)
[6] = read-out: T. brucei EC50 (converted)
[7] = at 10 μM, intracellular amastigotes
[8] = lower limit of CC50 interval, read-out: THP1 CC50 lower limit
[9] = upper limit of CC50 interval, read-out: THP1 CC50 upper limit
[10] = cytotoxic concentration for THP1 cells, read-out: CC50 THP1

T1 sequence (P08684 whole entry, canonical isoform): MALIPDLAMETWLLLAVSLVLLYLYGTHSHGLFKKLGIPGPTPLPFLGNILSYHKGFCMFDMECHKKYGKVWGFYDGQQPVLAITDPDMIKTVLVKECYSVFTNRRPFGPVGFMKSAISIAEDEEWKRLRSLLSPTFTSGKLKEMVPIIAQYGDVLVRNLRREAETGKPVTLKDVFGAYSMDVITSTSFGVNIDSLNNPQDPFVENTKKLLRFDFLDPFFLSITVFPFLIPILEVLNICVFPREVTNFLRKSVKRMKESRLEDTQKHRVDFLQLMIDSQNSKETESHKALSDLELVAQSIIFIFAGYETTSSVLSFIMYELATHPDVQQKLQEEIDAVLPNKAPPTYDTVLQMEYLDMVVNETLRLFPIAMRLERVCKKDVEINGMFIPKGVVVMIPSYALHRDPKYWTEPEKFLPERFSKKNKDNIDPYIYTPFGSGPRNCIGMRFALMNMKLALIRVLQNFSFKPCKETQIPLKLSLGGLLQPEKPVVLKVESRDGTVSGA

| Structure (SMILES) | inhibition at 10 µM ([1]; at 10 μM) [%] | EC50 [1, 5] [µM] | EC50 [1, 6] [µM] | inhibition at 10 µM [2, 7] [%] | L. infantum % cell growth inhibition [2, 7] | CC50 at 72 h [3, 8] [µM] | CC50 at 72 h [3, 9] [µM] | IC50 (CYP3A4; read-out: CYP 3A4 IC50) [µM] | GI50 [4] [µM] | A549 cytotoxicity LC50 (50% lethal concentration) (A549 cells) | A549 cytotoxicity TGI (total growth inhibition) (A549 cells) | CC50 at 72 h [3, 10] [µM] | LC50 (50% lethal concentration) [4] [µM] | activity at 10 µM (CYP3A4; human, at 10 µM compound concentration, read-out: CYP 3A4 % residual activity) [%] | activity at 10 µM (A549 cells; Homo sapiens, A549, at 10 µM compound concentration, printed in GI50 column, read-out: A549 % residual activity) [%] | A549 cytotoxicity GI50 (50% growth inhibition) (A549 cells) | inhibition at 10 µM [1] [%] | inhibition at 10 µM [2] [%] | IC50 (CYP3A4) [µM] | CYP 3A4 IC50 (CYP3A4) |
| --- | --- | --- | --- | --- | --- | --- | --- | --- | --- | --- | --- | --- | --- | --- | --- | --- | --- | --- | --- | --- |
| Nc1nc2ccc(C(=O)NCCc3ccc(Cl)c(Cl)c3)cc2s1 [Compound 1a, 2-amino-N-(3,4-dichlorophenethyl)benzo[d]thiazole-6-carboxamide] | 100 | 2.83 to 3.37 | 3.1 | < 0 | inactive | > 50 | < 100 | 1 | 27 | max | 54.4 µM |  |  |  |  |  |  |  |  |  |
| Nc1nc2ccc(C(=O)N(CCc3ccc(Cl)c(Cl)c3)C3CC3)cc2s1 [Compound 1b, 2-amino-N-cyclopropyl-N-(3,4-dichlorophenethyl)benzo[d]thiazole-6-carboxamide] | 97 | 4.45 to 5.88 | 5 | ~50 | 46±13% | > 25 | < 50 | 0.7 | 13.8 | max | 54.6 µM | 25 to 50 |  |  |  |  |  |  |  |  |
| Nc1nc2ccc(C(=O)N(Cc3ccc(Cl)c(Cl)c3)C3CC3)cc2s1 [Compound 1c, 2-amino-N-cyclopropyl-N-(3,4-dichlorobenzyl)benzo[d]thiazole-6-carboxamide] | 18 ± 8 |  |  | 24 ± 3 |  |  |  | 1.3 | 24.6 |  | 61.3 µM | > 100 | 100 |  |  |  |  |  |  |  |
| Nc1nc2ccc(CN(Cc3ccc(Cl)c(Cl)c3)C3CC3)cc2s1 [Compound 1d, 6-((cyclopropyl(3,4-dichlorobenzyl)amino)methyl)benzo[_d_]thiazol-2-amine] | 59 ± 2 |  |  | < 0 |  | > 25 | < 50 | 4 | 12.6 |  | 34.4 µM | 25 to 50 | 63.1 |  |  |  |  |  |  |  |
| Nc1nc2ccc(C(=O)N(CCc3ccc(Cl)c(Cl)c3)c3ccccc3)cc2s1 [Compound 1e, 2-amino-N-(3,4-dichlorophenethyl)-N-phenylbenzo[d]thiazole-6-carboxamide] | 31 |  |  | < 0 |  |  |  |  |  |  |  | > 100 |  | 26.3 | 103 |  |  |  |  |  |
| Nc1nc2ccc(C(=O)NCCc3ccccc3)cc2s1 [Compound 2a, 2-amino-N-phenethylbenzo[d]thiazole-6-carboxamide] | 27 |  |  | < 0 |  |  |  | 19.9 |  | max | max | > 100 |  |  |  | max |  |  |  |  |
| Nc1nc2ccc(C(=O)NCCc3cccc(Cl)c3)cc2s1 [Compound 2b, 2-amino-N-(3-chlorophenethyl)benzo[d]thiazole-6-carboxamide] |  |  |  |  |  | > 50 | < 100 |  | 54.5 | max | 95.9 µM |  |  |  |  |  | 51 | < 0 | 6.5 |  |
| Nc1nc2ccc(C(=O)NCCc3ccc(Cl)cc3)cc2s1 [Compound 2c, 2-amino-N-(4-chlorophenethyl)benzo[d]thiazole-6-carboxamide] | 27 |  |  | < 0 |  | > 50 | < 100 |  |  | max | max |  |  |  |  | max |  |  |  | max |
| Nc1nc2ccc(C(=O)NCCc3cccc(Br)c3)cc2s1 [Compound 2d, 2-amino-N-(3-bromophenethyl)benzo[d]thiazole-6-carboxamide] | 39 ± 5 |  |  | < 0 |  | > 50 | < 100 | 5.4 | 60.4 | max | 85.5 µM |  |  |  |  |  |  |  |  |  |
| Nc1nc2ccc(C(=O)NCCc3ccc(Br)cc3)cc2s1 [Compound 2e, 2-amino-N-(4-bromophenethyl)benzo[d]thiazole-6-carboxamide] | 37 |  |  | < 0 |  | > 25 | < 50 | 4.7 |  | max | max |  |  |  |  | max |  |  |  |  |
| Nc1nc2ccccc2n1Cc1ccc(Cl)c(Cl)c1 [I, 1-(3,4-dichlorobenzyl)-1H-benzimidazol-2-amine, reference compound] | < 0 |  |  | 29 ± 2 |  |  |  | 3.1 |  |  |  | 8 |  |  |  |  |  |  |  |  |
